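Where inhibition never reached the appropriate level, the endpoint shown equals the highest concentration tested. Otherwise, values were interpolated linearly from a five-concentration, 48-hour dose response in 96-well plates. The concentration for 50% growth inhibition is given as GI50.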 The source made the active and inactive calls. No stated cut-off is given here; in the data, active = GI50 up to about 1.1 µM and inactive = higher.
Assays:
Assay in all cases: NCI anticancer screen, dose series, 48 h
[1] = system: OVCAR-5
[2] = system: HCC 2998
[3] = system: ACHN
[4] = system: TK-10
[5] = system: 786-0
[6] = system: CCRF-CEM
[7] = system: HCT-116
[8] = system: NCI-H460
[9] = system: DU-145
[10] = system: HOP-92
[11] = system: SF-268
[12] = system: SK-MEL-2
[13] = system: MDA-N
[14] = system: HL-60
[15] = system: SNB-19
[16] = system: NCI-H23
[17] = system: A549
[18] = system: OVCAR-8
[19] = system: LOX IMVI

## O=C1CC(=O)NC(NNS(=O)(=O)c2ccc(Cl)cc2)=N1
[1]
  GI50: > 100 µM (inactive)
[2]
  GI50: > 100 µM (inactive)
[3]
  GI50: > 100 µM (inactive)
[4]
  GI50: > 100 µM (inactive)
[5]
  GI50: > 100 µM (inactive)
[6]
  GI50: 63.1 µM (inactive)
[7]
  GI50: > 100 µM (inactive)
[8]
  GI50: > 100 µM (inactive)
[9]
  GI50: > 100 µM (inactive)
[10]
  GI50: > 100 µM (inactive)
[11]
  GI50: > 100 µM (inactive)
[12]
  GI50: > 100 µM (inactive)
[13]
  GI50: > 100 µM (inactive)
[14]
  GI50: 70.8 µM (inactive)
[15]
  GI50: > 100 µM (inactive)
[16]
  GI50: > 100 µM (inactive)
[17]
  GI50: > 100 µM (inactive)
[18]
  GI50: > 100 µM (inactive)

## OC12COc3ccccc3C1Oc1ccccc1C2 (stereo unspecified)
[1]
  GI50: > 100 µM (inactive)
[2]
  GI50: > 100 µM (inactive)
[3]
  GI50: > 100 µM (inactive)
[4]
  GI50: > 100 µM (inactive)
[5]
  GI50: > 100 µM (inactive)
[6]
  GI50: > 100 µM (inactive)
[7]
  GI50: > 100 µM (inactive)
[9]
  GI50: > 100 µM (inactive)
[10]
  GI50: > 100 µM (inactive)
[11]
  GI50: > 100 µM (inactive)
[12]
  GI50: > 100 µM (inactive)
[13]
  GI50: > 100 µM (inactive)
[16]
  GI50: > 100 µM (inactive)
[17]
  GI50: > 100 µM (inactive)
[19]
  GI50: > 100 µM (inactive)
[18]
  GI50: > 100 µM (inactive)

## N#C/C(N)=C(\C#N)NC(=O)C(=O)N/C(C#N)=C(\N)C#N
[1]
  GI50: > 100 µM (inactive)
[2]
  GI50: > 100 µM (inactive)
[3]
  GI50: > 100 µM (inactive)
[4]
  GI50: > 100 µM (inactive)
[5]
  GI50: > 100 µM (inactive)
[6]
  GI50: 77.6 µM (inactive)
[7]
  GI50: > 100 µM (inactive)
[8]
  GI50: > 100 µM (inactive)
[9]
  GI50: > 100 µM (inactive)
[10]
  GI50: > 100 µM (inactive)
[11]
  GI50: > 100 µM (inactive)
[12]
  GI50: > 100 µM (inactive)
[13]
  GI50: > 100 µM (inactive)
[15]
  GI50: > 100 µM (inactive)
[16]
  GI50: > 100 µM (inactive)
[17]
  GI50: > 100 µM (inactive)
[19]
  GI50: > 100 µM (inactive)
[18]
  GI50: > 100 µM (inactive)

## CC(C)(C)OC(=O)Cn1ncn(NC(=O)Cc2ccccc2)c1=O
[1]
  GI50: > 10 µM (inactive)
[2]
  GI50: > 10 µM (inactive)
[3]
  GI50: > 10 µM (inactive)
[4]
  GI50: > 10 µM (inactive)
[5]
  GI50: > 10 µM (inactive)
[6]
  GI50: > 10 µM (inactive)
[7]
  GI50: > 10 µM (inactive)
[8]
  GI50: > 10 µM (inactive)
[9]
  GI50: > 10 µM (inactive)
[10]
  GI50: > 10 µM (inactive)
[11]
  GI50: > 10 µM (inactive)
[13]
  GI50: > 10 µM (inactive)
[15]
  GI50: > 10 µM (inactive)
[16]
  GI50: > 10 µM (inactive)
[17]
  GI50: > 10 µM (inactive)
[19]
  GI50: > 10 µM (inactive)
[18]
  GI50: > 10 µM (inactive)

## CC(=O)N[C@@H](Cc1ccc(O)cn1)C(=O)NC1CCCCC1
[1]
  GI50: > 100 µM (inactive)
[2]
  GI50: > 100 µM (inactive)
[3]
  GI50: > 100 µM (inactive)
[4]
  GI50: > 100 µM (inactive)
[5]
  GI50: > 100 µM (inactive)
[6]
  GI50: > 100 µM (inactive)
[7]
  GI50: > 100 µM (inactive)
[9]
  GI50: > 100 µM (inactive)
[10]
  GI50: > 100 µM (inactive)
[11]
  GI50: > 100 µM (inactive)
[12]
  GI50: > 100 µM (inactive)
[13]
  GI50: > 100 µM (inactive)
[15]
  GI50: > 100 µM (inactive)
[16]
  GI50: > 100 µM (inactive)
[17]
  GI50: > 100 µM (inactive)
[19]
  GI50: > 100 µM (inactive)
[18]
  GI50: > 100 µM (inactive)

## Cc1ccc(S(=O)(=O)N2CCSCCN(S(=O)(=O)c3ccc(C)cc3)CCN(S(=O)(=O)c3ccc(C)cc3)CC2)cc1
[1]
  GI50: > 100 µM (inactive)
[2]
  GI50: > 100 µM (inactive)
[5]
  GI50: 16.7 µM (inactive)
[6]
  GI50: > 100 µM (inactive)
[7]
  GI50: 78.5 µM (inactive)
[8]
  GI50: > 100 µM (inactive)
[9]
  GI50: > 100 µM (inactive)
[10]
  GI50: 0.184 µM (active)
[11]
  GI50: 16.7 µM (inactive)
[12]
  GI50: 25.9 µM (inactive)
[13]
  GI50: > 100 µM (inactive)
[14]
  GI50: > 100 µM (inactive)
[15]
  GI50: 29.2 µM (inactive)
[16]
  GI50: 79.4 µM (inactive)
[17]
  GI50: > 100 µM (inactive)
[18]
  GI50: 37.8 µM (inactive)

## NCCCCC(NC(=O)C(N)Cc1ccc(O)cn1)C(=O)O (stereo unspecified)
[1]
  GI50: > 100 µM (inactive)
[2]
  GI50: > 100 µM (inactive)
[3]
  GI50: > 100 µM (inactive)
[4]
  GI50: > 100 µM (inactive)
[5]
  GI50: > 100 µM (inactive)
[6]
  GI50: > 100 µM (inactive)
[7]
  GI50: > 100 µM (inactive)
[8]
  GI50: > 100 µM (inactive)
[9]
  GI50: > 100 µM (inactive)
[10]
  GI50: > 100 µM (inactive)
[11]
  GI50: > 100 µM (inactive)
[13]
  GI50: > 100 µM (inactive)
[14]
  GI50: > 100 µM (inactive)
[15]
  GI50: > 100 µM (inactive)
[16]
  GI50: > 100 µM (inactive)
[17]
  GI50: > 100 µM (inactive)
[19]
  GI50: > 100 µM (inactive)
[18]
  GI50: > 100 µM (inactive)

## COC(=O)[C@H](Cc1ccccc1)NC(=O)N(CCC#N)CCCCN(CCC#N)C(=O)N[C@@H](Cc1ccccc1)C(=O)OC
[1]
  GI50: > 100 µM (inactive)
[2]
  GI50: > 100 µM (inactive)
[3]
  GI50: > 100 µM (inactive)
[4]
  GI50: > 100 µM (inactive)
[5]
  GI50: > 100 µM (inactive)
[7]
  GI50: > 100 µM (inactive)
[8]
  GI50: > 81.8 µM (inactive)
[9]
  GI50: > 100 µM (inactive)
[10]
  GI50: > 100 µM (inactive)
[11]
  GI50: > 100 µM (inactive)
[12]
  GI50: > 100 µM (inactive)
[13]
  GI50: > 100 µM (inactive)
[15]
  GI50: > 100 µM (inactive)
[16]
  GI50: > 100 µM (inactive)
[17]
  GI50: > 100 µM (inactive)
[19]
  GI50: > 100 µM (inactive)
[18]
  GI50: > 100 µM (inactive)

## COc1ccc(CCN(C)C(=O)CC(C#N)(c2ccccc2)c2ccc(OC)c(OC)c2)cc1OC (stereo unspecified)
[1]
  GI50: > 100 µM (inactive)
[3]
  GI50: > 100 µM (inactive)
[4]
  GI50: > 100 µM (inactive)
[5]
  GI50: > 100 µM (inactive)
[6]
  GI50: > 100 µM (inactive)
[7]
  GI50: > 100 µM (inactive)
[8]
  GI50: > 100 µM (inactive)
[9]
  GI50: > 100 µM (inactive)
[10]
  GI50: 3.15 µM (inactive)
[11]
  GI50: > 100 µM (inactive)
[12]
  GI50: > 100 µM (inactive)
[13]
  GI50: > 100 µM (inactive)
[14]
  GI50: > 100 µM (inactive)
[15]
  GI50: > 100 µM (inactive)
[16]
  GI50: > 100 µM (inactive)
[17]
  GI50: > 100 µM (inactive)
[19]
  GI50: > 100 µM (inactive)
[18]
  GI50: > 100 µM (inactive)

## O=C1CCCCC(=O)OC2(CCCCC2=O)CC1 (stereo unspecified)
[1]
  GI50: > 100 µM (inactive)
[2]
  GI50: > 100 µM (inactive)
[3]
  GI50: > 100 µM (inactive)
[4]
  GI50: > 100 µM (inactive)
[5]
  GI50: > 100 µM (inactive)
[6]
  GI50: > 100 µM (inactive)
[7]
  GI50: > 100 µM (inactive)
[8]
  GI50: > 100 µM (inactive)
[9]
  GI50: > 100 µM (inactive)
[10]
  GI50: > 100 µM (inactive)
[11]
  GI50: > 100 µM (inactive)
[12]
  GI50: > 100 µM (inactive)
[13]
  GI50: > 100 µM (inactive)
[16]
  GI50: > 100 µM (inactive)
[17]
  GI50: > 100 µM (inactive)
[18]
  GI50: > 100 µM (inactive)

## c1cc2c(c(NC3=NCCO3)c1)CCC2
[1]
  GI50: > 100 µM (inactive)
[3]
  GI50: > 100 µM (inactive)
[4]
  GI50: > 100 µM (inactive)
[5]
  GI50: > 100 µM (inactive)
[6]
  GI50: > 100 µM (inactive)
[7]
  GI50: > 100 µM (inactive)
[8]
  GI50: > 100 µM (inactive)
[9]
  GI50: > 100 µM (inactive)
[10]
  GI50: 94.4 µM (inactive)
[11]
  GI50: > 100 µM (inactive)
[12]
  GI50: > 100 µM (inactive)
[13]
  GI50: 84.5 µM (inactive)
[14]
  GI50: 60.1 µM (inactive)
[15]
  GI50: > 100 µM (inactive)
[16]
  GI50: > 100 µM (inactive)
[17]
  GI50: > 100 µM (inactive)
[19]
  GI50: > 100 µM (inactive)
[18]
  GI50: > 100 µM (inactive)

## CC(=O)Nc1cc(Nc2cc(O)nc(O)n2)ccc1C
[1]
  GI50: > 100 µM (inactive)
[2]
  GI50: > 100 µM (inactive)
[3]
  GI50: > 100 µM (inactive)
[4]
  GI50: > 100 µM (inactive)
[5]
  GI50: > 100 µM (inactive)
[6]
  GI50: > 100 µM (inactive)
[7]
  GI50: > 100 µM (inactive)
[8]
  GI50: > 100 µM (inactive)
[9]
  GI50: > 100 µM (inactive)
[10]
  GI50: > 100 µM (inactive)
[11]
  GI50: > 100 µM (inactive)
[13]
  GI50: > 100 µM (inactive)
[14]
  GI50: > 100 µM (inactive)
[15]
  GI50: > 100 µM (inactive)
[17]
  GI50: > 100 µM (inactive)
[19]
  GI50: > 100 µM (inactive)
[18]
  GI50: > 100 µM (inactive)

— ChEMBL document CHEMBL1201862, “PubChem BioAssay data set” (2004)
